Structures are written as SMILES. “And” between values parts separate entries of the source, which are not always exact repeats. Equal entries are not always repeated.

Experiment in all cases: biochemical
Design in all cases: endogenous in cells; host or cells: K562 cell extract; species or system K562 (extract); replicate k of n = 2 (each experiment ID is one independent experiment; two experiment IDs per compound)
What all share (conditions): read-out: KDapp

The target in assay [1] is T1, ULK1 (Homo sapiens, UniProt O75385).
T1 sequence (O75385 1-1050): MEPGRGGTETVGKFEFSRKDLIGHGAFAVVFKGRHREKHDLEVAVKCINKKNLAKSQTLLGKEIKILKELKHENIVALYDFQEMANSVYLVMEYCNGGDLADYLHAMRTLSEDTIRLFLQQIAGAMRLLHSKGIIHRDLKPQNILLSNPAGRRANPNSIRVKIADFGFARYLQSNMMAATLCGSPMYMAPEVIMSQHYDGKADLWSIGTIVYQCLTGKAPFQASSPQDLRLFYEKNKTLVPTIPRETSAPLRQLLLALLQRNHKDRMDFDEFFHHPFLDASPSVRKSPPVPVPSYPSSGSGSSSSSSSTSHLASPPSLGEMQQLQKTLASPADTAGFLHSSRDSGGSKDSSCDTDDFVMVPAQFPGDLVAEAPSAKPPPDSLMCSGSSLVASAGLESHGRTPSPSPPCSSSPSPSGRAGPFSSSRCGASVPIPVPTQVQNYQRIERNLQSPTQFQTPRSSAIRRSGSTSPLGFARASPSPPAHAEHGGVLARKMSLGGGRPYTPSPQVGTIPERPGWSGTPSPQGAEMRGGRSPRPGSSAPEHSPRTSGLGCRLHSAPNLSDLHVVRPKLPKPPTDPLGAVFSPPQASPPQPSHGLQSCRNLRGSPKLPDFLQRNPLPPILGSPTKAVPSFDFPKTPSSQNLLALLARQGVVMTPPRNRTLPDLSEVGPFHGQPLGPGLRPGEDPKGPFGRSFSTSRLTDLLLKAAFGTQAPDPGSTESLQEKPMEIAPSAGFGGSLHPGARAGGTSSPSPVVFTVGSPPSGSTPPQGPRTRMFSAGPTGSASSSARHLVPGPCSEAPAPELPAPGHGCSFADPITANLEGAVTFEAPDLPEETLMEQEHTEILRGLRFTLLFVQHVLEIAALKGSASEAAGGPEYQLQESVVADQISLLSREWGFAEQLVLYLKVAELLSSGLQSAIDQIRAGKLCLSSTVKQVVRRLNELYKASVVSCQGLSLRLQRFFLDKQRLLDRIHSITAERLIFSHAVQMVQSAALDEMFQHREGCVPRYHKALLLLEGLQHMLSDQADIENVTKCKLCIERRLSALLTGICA

For assay [2], the target named is T2, MAP4K2 (Homo sapiens, UniProt Q12851).
T2 sequence (Q12851 1-820): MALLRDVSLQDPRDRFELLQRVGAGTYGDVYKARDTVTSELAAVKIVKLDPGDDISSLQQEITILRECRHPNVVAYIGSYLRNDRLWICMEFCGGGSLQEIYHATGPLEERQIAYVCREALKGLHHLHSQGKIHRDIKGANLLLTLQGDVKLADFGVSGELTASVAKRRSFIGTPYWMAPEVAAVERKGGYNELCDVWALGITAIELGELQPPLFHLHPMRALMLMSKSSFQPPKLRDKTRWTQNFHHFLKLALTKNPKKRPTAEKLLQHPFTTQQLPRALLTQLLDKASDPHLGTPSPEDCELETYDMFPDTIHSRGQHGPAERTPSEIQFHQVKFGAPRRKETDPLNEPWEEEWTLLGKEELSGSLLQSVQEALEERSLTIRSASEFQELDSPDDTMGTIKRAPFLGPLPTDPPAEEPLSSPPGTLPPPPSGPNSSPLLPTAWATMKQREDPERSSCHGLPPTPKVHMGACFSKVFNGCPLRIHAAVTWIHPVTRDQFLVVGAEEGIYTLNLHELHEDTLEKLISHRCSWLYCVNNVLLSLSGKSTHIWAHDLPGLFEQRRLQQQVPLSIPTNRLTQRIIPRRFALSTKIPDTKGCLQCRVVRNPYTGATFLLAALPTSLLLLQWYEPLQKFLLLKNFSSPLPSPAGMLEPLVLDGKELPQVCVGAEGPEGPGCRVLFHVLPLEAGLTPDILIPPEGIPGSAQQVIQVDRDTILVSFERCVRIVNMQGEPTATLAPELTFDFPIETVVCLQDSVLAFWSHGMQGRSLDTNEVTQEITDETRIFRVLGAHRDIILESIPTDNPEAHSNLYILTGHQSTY

Assay [3] deals with T3, TNK1 (Homo sapiens, UniProt Q13470).
T3 sequence (Q13470 1-666): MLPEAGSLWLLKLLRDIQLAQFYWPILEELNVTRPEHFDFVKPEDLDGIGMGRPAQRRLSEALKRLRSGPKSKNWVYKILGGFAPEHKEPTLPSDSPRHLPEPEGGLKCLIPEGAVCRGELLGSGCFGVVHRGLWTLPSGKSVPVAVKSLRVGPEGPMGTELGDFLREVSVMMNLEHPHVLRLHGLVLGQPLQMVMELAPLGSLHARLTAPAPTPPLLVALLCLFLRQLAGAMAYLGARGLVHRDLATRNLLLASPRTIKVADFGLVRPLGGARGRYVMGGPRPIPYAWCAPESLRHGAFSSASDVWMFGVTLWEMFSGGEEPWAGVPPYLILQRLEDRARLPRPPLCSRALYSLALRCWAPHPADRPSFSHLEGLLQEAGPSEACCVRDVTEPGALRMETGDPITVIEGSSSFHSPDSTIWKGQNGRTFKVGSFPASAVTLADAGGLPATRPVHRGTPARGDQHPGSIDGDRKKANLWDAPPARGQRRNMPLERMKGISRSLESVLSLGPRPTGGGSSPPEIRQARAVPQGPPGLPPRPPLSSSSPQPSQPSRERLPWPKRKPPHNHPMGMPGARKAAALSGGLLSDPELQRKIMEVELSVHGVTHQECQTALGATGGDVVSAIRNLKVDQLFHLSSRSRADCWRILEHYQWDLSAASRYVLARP

With `CN1CCN(c2ccc(Nc3ncc(C#N)c(Nc4ccccc4C(N)=O)n3)cc2)CC1.Cl` [TCMDC-134116], the Kd in assay [1] stood at 95 nM; in assay [2], 648 nM.

As to `CN(C)CC(O)COc1ccc(Nc2ncc([N+](=O)[O-])c(Nc3ccccc3O)n2)cc1.O=C(O)C(F)(F)F` (stereo not drawn) [TCMDC-141399], in assay [3], the Kd was 1150 nM and 464 nM.

The values are drawn from article PMC4774911, “Biochemical Screening of Five Protein Kinases from Plasmodium falciparum against 14,000 Cell-Active Compounds” (PLoS ONE, 2016).
